Experimental data: US20050197350A1, “Novel quinoline, tetrahydroquinazoline, and pyrimidine derivatives and methods of treatment related to the use thereof” (TAISHO PHARMACEUTICAL CO., LTD., priority 2003, published 2005)
Where a name gives a salt, the structure may show the parent alone.

What follows are molecules tested against MCH receptor (Homo sapiens, UniProt Q99705) (assay: High throughput functional screening FLIPR/FDSS6000 (intracellular Ca2+ evoked by MCH)). Conditions: FLIPR/FDSS, antagonist activity vs 50 nM MCH; class by percent of control at 10^−7 M or IC50; read-out: class.
Type: cell-based
In short: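 For antagonist testing, compound-treated cells (30 min, 37 °C) were stimulated with 50 nM MCH and intracellular Ca2+ followed by Fluo4 fluorescence on FLIPR/FDSS6000. Receptor was a constitutively active, non-endogenous MCH receptor; dye loading 4 μM Fluo4-AM, 1 h, 37 °C.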

Row | IC50 | Compound
1 | 50 to 200 nM | Cc1cnc(N[C@H]2CC[C@@H](C(=O)N[C@@H](C)c3ccc(Cl)cc3)CC2)nc1N(C)C [Example 3292, cis-N-[(1S)-1-(4-chlorophenyl)ethyl]-4-{[4-(dimethylamino)-5-methylpyrimidin-2-yl]amino}cyclohexanecarboxamide]
2 | < 50 nM | Cc1cnc(N[C@H]2CC[C@@H](NC(=O)Nc3c(Cl)cc(Cl)cc3Cl)CC2)nc1N(C)C [Example 3345, N-(cis-4-{[4-(dimethylamino)-5-methylpyrimidin-2-yl]amino}cyclohexyl)-N′-(2,4,6-trichlorophenyl)urea]
3 | < 50 nM | CCN(C(=O)N[C@H]1CC[C@@H](Nc2ncc(C)c(N(C)C)n2)CC1)c1cccc(C)c1 [Example 3355, N′-(cis-4-{[4-(dimethylamino)-5-methylpyrimidin-2-yl]amino}cyclohexyl)-N-ethyl-N-(3-methylphenyl)urea]
4 | > 200 nM | CNc1nc(N[C@H]2CC[C@@H](NC(=O)COc3cc(C(F)(F)F)ncn3)CC2)ncc1C [Example 3363, N-(cis-4-{[5-methyl-4-(methylamino)pyrimidin-2-yl]amino}-cyclohexyl)-2-{[6-(trifluoromethyl)pyrimidin-4-yl]oxy}acetamide]
5 | 50 to 200 nM | Cc1cc(N(C)C)nc(N[C@H]2CC[C@@H](NC(=O)c3cccnc3S(=O)(=O)c3ccc(F)cc3)CC2)n1 [Example 3368, N-(cis-4-{[4-(dimethylamino)-6-methylpyrimidin-2-yl]amino}cyclohexyl)-2-[(4-fluorophenyl)sulfonyl]nicotinamide]
6 | < 50 nM | Cc1cc(N[C@H]2CC[C@@H](C(=O)N[C@@H](C)c3cccc(C(F)(F)F)c3)CC2)nc2ccccc12 [Example 3315, cis-4-[(4-methylquinolin-2-yl)amino]-N-{(1S)-1-[3-(trifluoromethyl)phenyl]ethyl}cyclohexanecarboxamide]
7 | > 200 nM | Cc1cc(N(C)C)nc(N[C@H]2CC[C@@H](NC(=O)c3cccnc3S(=O)(=O)c3ccccc3Br)CC2)n1 [Example 3372, 2-[(2-bromophenyl)sulfonyl]-N-(cis-4-{[4-(dimethylamino)-6-methylpyrimidin-2-yl]amino}cyclohexyl)nicotinamide]

Same assay, conditions: FLIPR/FDSS, antagonist activity vs 50 nM MCH; class by percent of control at 10^−7 M or IC50; table after the classification; read-out: class

Row | Compound | IC50
8 | Cc1cccc(Oc2ncccc2C(=O)N[C@H]2CC[C@@H](Nc3cc(C)c4ccccc4n3)CC2)c1 [Example 3097, N-[cis-4-(4-Methylquinolin-2-ylamino)-cyclohexyl]-2-m-tolyloxy-nicotinamide hydrochloride] | < 50 nM
9 | O=C(N[C@H]1CC[C@@H](Nc2ccc3ccccc3n2)CC1)c1cccc([N+](=O)[O-])c1 [Example 3045, 3-Nitro-N-[cis-4-(quinolin-2-ylamino)-cyclohexyl]-benzamide hydrochloride] | < 50 nM
10 | O=C(N[C@H]1CC[C@@H](Nc2ccc3ccccc3n2)CC1)c1cccnc1Oc1ccccc1 [Example 3032, 2-Phenoxy-N-[cis-4-(quinolin-2-ylamino)-cyclohexyl]-nicotinamide hydrochloride] | < 50 nM
11 | O=C(N[C@H]1CC[C@@H](Nc2ccc3ccccc3n2)CC1)c1ccc2nonc2c1 [Example 3041, Benzo[2,1,3]oxadiazole-5-carboxylic acid-[cis-4-(quinolin-2-ylamino)-cyclohexyl]-amide hydrochloride] | < 50 nM
12 | COc1cc(OC)cc(C(=O)N[C@H]2CC[C@@H](Nc3ccc4ccccc4n3)CC2)c1 [Example 3039, 3,5-Dimethoxy-N-[cis-4-(quinolin-2-ylamino)-cyclohexyl]-benzamide hydrochloride] | < 50 nM
13 | CN(C)c1ccnc(N[C@H]2CC[C@@H](NC(=O)c3csc([N+](=O)[O-])c3)CC2)n1 [Example 3198, 5-Nitro-thiophene-3-carboxylic acid [cis-4-(4-dimethylamino-pyrimidine-2-ylamino)-cyclohexyl]-amide hydrochloride] | < 50 nM
14 | COc1ccc(Oc2ncccc2C(=O)N[C@H]2CC[C@@H](Nc3ccc4ccccc4n3)CC2)cc1 [Example 3059, 2-(4-Methoxy-phenoxy)-N-[cis-4-(quinolin-2-ylamino)-cyclohexyl]-nicotinamide hydrochloride] | < 50 nM
15 | CNc1nc(N[C@H]2CC[C@@H](CNCc3ccc(Br)cc3OC(F)(F)F)CC2)nc2c1CCCC2 [Example 11, N^2-{cis-4-[(4-Bromo-2-trifluoromethoxy-beny)amino-methyl]-cyclobexyl}-N^4-methyl-5,6,7,8-tetrahydro-quinazoline-2,4-diamine dihydrochloride] | < 50 nM
16 | Cc1cc(N[C@H]2CC[C@@H](NC(=O)C3c4ccccc4Oc4ccccc43)CC2)nc2ccccc12 [Example 3082, 9H-Xanthene-9-carboxylic acid-[cis-4-(4-methyl-quinolin-2-ylamino)-cyclohexyl]-amide hydrochloride] | < 50 nM
17 | Cc1cc(N[C@H]2CC[C@@H](NC(=O)c3ccc(N(C)C)nc3)CC2)nc2ccccc12 [Example 3176, 6-Dimethylamino-N-[cis-4-(4-methyl-quinolin-2-ylamino)-cyclohexyl]-nicotinamide dihydrochloride] | 50 to 200 nM
18 | O=C(N[C@H]1CC[C@@H](Nc2ccc3ccccc3n2)CC1)c1cc(F)cc(F)c1 [Example 3152, 3,5-Difluoro-N-[cis-4-(quinolin-2-ylamino)-cyclohexyl]-benzamide hydrochloride] | < 50 nM
19 | Cc1cc(N[C@H]2CC[C@@H](NC(=O)c3ccc4nonc4c3)CC2)nc2ccccc12 [Example 3085, Benzo[2,1,3]oxadiazole-5-carboxylic acid-[cis-4-(4-methyl-quinolin-2-ylamino)-cyclohexyl]-amide hydrochloride] | < 50 nM
20 | Cc1cccc(Oc2ncccc2C(=O)N[C@H]2CC[C@@H](Nc3ccc4ccccc4n3)CC2)c1 [Example 3061, N-[cis-4-(Quinolin-2-ylamino)-cyclohexyl]-2-m-tolyloxy-nicotinamide hydrochloride] | < 50 nM
21 | COc1cc(OC)nc(N[C@H]2CC[C@@H](NC(=O)c3cccnc3Oc3ccccc3)CC2)n1 [Example 3135, N-[cis-4-(4,6-Dimethoxy-pyrimidin-2-ylamino)-cyclohexyl]-2-phenoxy-nicotinamide hydrochloride] | > 200 nM
22 | CN(C)c1ccnc(N[C@H]2CC[C@@H](NC(=O)c3cc(F)cc(F)c3)CC2)n1 [Example 3205, N-[cis-4-(4-Dimethylamino-pyrimidin-2-ylamino)-cyclohexyl]-3,5-difluoro-benzamide hydrochloride] | 50 to 200 nM
23 | O=C(N[C@H]1CC[C@@H](Nc2nccc(C(F)(F)F)n2)CC1)c1ccc(F)c(F)c1 [Example 3130, 3,4-Difluoro-N-[cis-4-(4-trifluoromethyl-pyrimidin-2-yl)amino-cyclohexyl]-benzamide hydrochloride] | > 200 nM
24 | CN(C)c1ccnc(N[C@H]2CC[C@@H](NC(=O)c3ccccn3)CC2)n1 [Example 3208, Pyridine-2-carboxylic acid [cis-4-(4-dimethylamino-pyrimidin-2-ylamino)-cyclohexyl]-amide hydrochloride] | > 200 nM
25 | Cc1cnc(N[C@H]2CC[C@@H](NC(=O)c3ccc(F)c(F)c3)CC2)nc1N(C)C [Example 3119, N-[cis-4-(4-Dimethylamino-5-methyl-pyrimidin-2-ylamino)-cyclohexyl]-3,4-difluoro-benzamide hydrochloride] | < 50 nM
26 | O=C(N[C@H]1CC[C@@H](Nc2ccc3ccccc3n2)CC1)c1cccnc1Oc1ccc(F)c(F)c1 [Example 3055, 2-(3,4-Difluoro-phenoxy)-N-[cis-4-(quinolin-2-ylamino)-cyclohexyl]-nicotinamide hydrochloride] | < 50 nM
27 | O=C(COc1ccc(Cl)c(Cl)c1)N[C@H]1CC[C@@H](Nc2ccc3ccccc3n2)CC1 [Example 3065, 2-(3,4-Dichloro-phenoxy)-N-[cis-4-(quinolin-2-ylamino)-cyclohexyl]-acetamide hydrochloride] | < 50 nM
28 | Cc1cc(N[C@H]2CC[C@@H](NC(=O)COc3ccc(F)c(Cl)c3)CC2)nc2ccccc12 [Example 3100, 2-(3-Chloro-4-fluoro-phenoxy)-N-[cis-4-(4-methyl-quinolin-2-ylamino)-cyclohexyl]-acetamide hydrochloride] | < 50 nM
29 | O=C(N[C@H]1CC[C@@H](Nc2ccc3ccccc3n2)CC1)c1cccnc1Oc1ccc(F)cc1 [Example 3054, 2-(4-Fluoro-phenoxy)-N-[cis-4-(quinolin-2-ylamino)-cyclohexyl]-nicotinamide hydrochloride] | < 50 nM

More lines, now with the values ahead:

Row | IC50 | Compound
30 | < 50 nM | Cc1cc(N[C@H]2CC[C@@H](NC(=O)c3ccc(F)c(F)c3)CC2)nc2ccccc12 [Example 3238, 3,4-Difluoro-N-[cis-4-(4-methyl-quinolin-2-ylamino)-cyclohexyl]-benzamide methanesulfonic acid]
31 | > 200 nM | NC(=O)c1cc(N[C@H]2CC[C@@H](NC(=O)c3ccc(F)c(F)c3)CC2)nc2ccccc12 [Example 3236, 2-(cis-4-{[1-(3,4-Difluoro-phenyl)-methanoyl]-amino}-cyclohexylamino)-quinoline-4-carboxylic acid amide]
32 | 50 to 200 nM | CN(C)c1ccnc(N[C@H]2CC[C@@H](NC(=O)c3cc(F)cc(Cl)c3)CC2)n1 [Example 3215, 3-Chloro-N-cis-4-(4-dimethylamino-pyrimidin-2-ylamino)-cyclohexyl]-5-fluoro-benzamide hydrochloride]
33 | < 50 nM | CN(C)c1ccnc(N[C@H]2CC[C@@H](NC(=O)c3cc(F)c(F)c(F)c3)CC2)n1 [Example 3216, N-[cis-4-(4-Dimethylamino-pyrimidin-2-ylamino)-cyclohexyl]-3,4,5-trifluoro-benzamide hydrochloride]

Same assay, conditions: FLIPR/FDSS, antagonist activity vs 50 nM MCH; representative examples; read-out: IC50

Row | IC50 | Compound
34 | 2.1 nM | Cc1cnc(N[C@H]2CC[C@@H](NC(=O)c3ccc(F)c(F)c3)CC2)nc1N(C)C [Example 2524, N-(cis-4-{[4-(Dimethylamino)-5-methylpyrimidin-2-yl]amino}cyclohexyl)-3,4-difluorobenzamide hydrochloride]
